Measurements as given in the NIST ThermoML archive (doi:10.1016/j.jct.2012.02.037).
Numbers after ± are expanded uncertainties.

Experiments:
[1] = excess molar enthalpy (molar enthalpy of mixing); xn = mol fraction of the nth substance listed; details: 300 K, 101 kPa, Liquid, Flow calorimetry
[2] = 303.15 K; 101.33 kPa; Liquid; Vibrating tube method
[3] = refractive index (Na D-line) (dimensionless); details: 303.15 K; 101.33 kPa; Liquid; Standard Abbe refractometry

OC1CCCCC1 [cyclohexanol] + CO
excess molar enthalpy ([1]; x1 = 0.0742): 0.0249 ± 0.000598 kcal/mol | excess molar enthalpy ([1]; x1 = 0.1422): 0.0368 ± 0.00086 kcal/mol | excess molar enthalpy ([1]; x1 = 0.2234): 0.0468 ± 0.00105 kcal/mol | excess molar enthalpy ([1]; x1 = 0.2948): 0.051 ± 0.00115 kcal/mol | excess molar enthalpy ([1]; x1 = 0.4871): 0.0514 ± 0.00115 kcal/mol | excess molar enthalpy ([1]; x1 = 0.5587): 0.0463 ± 0.00105 kcal/mol | excess molar enthalpy ([1]; x1 = 0.6333): 0.0406 ± 0.000932 kcal/mol | excess molar enthalpy ([1]; x1 = 0.7266): 0.0318 ± 0.000741 kcal/mol | excess molar enthalpy ([1]; x1 = 0.8274): 0.0196 ± 0.000502 kcal/mol | excess molar enthalpy ([1]; x1 = 0.9162): 0.0101 ± 0.000311 kcal/mol

OC1CCCCC1 [cyclohexanol] + CCCCO
excess molar enthalpy ([1]; x1 = 0.0976): 0.00894 ± 0.000287 kcal/mol | excess molar enthalpy ([1]; x1 = 0.1867): 0.0143 ± 0.000382 kcal/mol | excess molar enthalpy ([1]; x1 = 0.3025): 0.0214 ± 0.000526 kcal/mol | excess molar enthalpy ([1]; x1 = 0.3622): 0.0241 ± 0.000598 kcal/mol | excess molar enthalpy ([1]; x1 = 0.4484): 0.0271 ± 0.000645 kcal/mol | excess molar enthalpy ([1]; x1 = 0.5609): 0.0279 ± 0.000669 kcal/mol | excess molar enthalpy ([1]; x1 = 0.6402): 0.0279 ± 0.000669 kcal/mol | excess molar enthalpy ([1]; x1 = 0.7119): 0.0261 ± 0.000621 kcal/mol | excess molar enthalpy ([1]; x1 = 0.7842): 0.022 ± 0.00055 kcal/mol | excess molar enthalpy ([1]; x1 = 0.785): 0.0223 ± 0.00055 kcal/mol | excess molar enthalpy ([1]; x1 = 0.8549): 0.0168 ± 0.000454 kcal/mol | excess molar enthalpy ([1]; x1 = 0.8747): 0.0141 ± 0.000382 kcal/mol | excess molar enthalpy ([1]; x1 = 0.9059): 0.011 ± 0.000335 kcal/mol

CCCO [propan-1-ol]
mass density [2]: 795.53 ± 0.15 kg/m3 | refractive index [3]: 1.3821 ± 0.0005

CO [methanol]
mass density [2]: 781.87 ± 0.15 kg/m3 | refractive index [3]: 1.3255 ± 0.0005

CCO [ethanol]
mass density [2]: 780.82 ± 0.15 kg/m3 | refractive index [3]: 1.358 ± 0.0005

OC1CCCCC1 [cyclohexanol] + CCCO
excess molar enthalpy ([1]; x1 = 0.0808): 0.00583 ± 0.000239 kcal/mol | excess molar enthalpy ([1]; x1 = 0.1568): 0.0106 ± 0.000335 kcal/mol | excess molar enthalpy ([1]; x1 = 0.2326): 0.0151 ± 0.000406 kcal/mol | excess molar enthalpy ([1]; x1 = 0.3085): 0.0175 ± 0.000454 kcal/mol | excess molar enthalpy ([1]; x1 = 0.3888): 0.0201 ± 0.000502 kcal/mol | excess molar enthalpy ([1]; x1 = 0.4614): 0.0226 ± 0.00055 kcal/mol | excess molar enthalpy ([1]; x1 = 0.547): 0.0236 ± 0.000574 kcal/mol | excess molar enthalpy ([1]; x1 = 0.6359): 0.023 ± 0.000574 kcal/mol | excess molar enthalpy ([1]; x1 = 0.7223): 0.0205 ± 0.000526 kcal/mol | excess molar enthalpy ([1]; x1 = 0.8063): 0.0166 ± 0.00043 kcal/mol | excess molar enthalpy ([1]; x1 = 0.901): 0.00978 ± 0.000311 kcal/mol

CC(C)O [propan-2-ol]
mass density [2]: 776.71 ± 0.17 kg/m3 | refractive index [3]: 1.3741 ± 0.0005

OC1CCCCC1 [cyclohexanol] + CCO
excess molar enthalpy ([1]; x1 = 0.0883): 0.0164 ± 0.00043 kcal/mol | excess molar enthalpy ([1]; x1 = 0.1688): 0.0283 ± 0.000669 kcal/mol | excess molar enthalpy ([1]; x1 = 0.2501): 0.0351 ± 0.000813 kcal/mol | excess molar enthalpy ([1]; x1 = 0.337): 0.0397 ± 0.000908 kcal/mol | excess molar enthalpy ([1]; x1 = 0.456): 0.0422 ± 0.000956 kcal/mol | excess molar enthalpy ([1]; x1 = 0.5436): 0.0424 ± 0.00098 kcal/mol | excess molar enthalpy ([1]; x1 = 0.6255): 0.0391 ± 0.000908 kcal/mol | excess molar enthalpy ([1]; x1 = 0.7119): 0.0348 ± 0.000813 kcal/mol | excess molar enthalpy ([1]; x1 = 0.8026): 0.0279 ± 0.000669 kcal/mol | excess molar enthalpy ([1]; x1 = 0.9062): 0.016 ± 0.00043 kcal/mol

CCCCO [butan-1-ol]
mass density [2]: 801.98 ± 0.15 kg/m3 | refractive index [3]: 1.3962 ± 0.0005

CCC(C)O (configuration not stated) [butan-2-ol]
mass density [2]: 798.58 ± 0.24 kg/m3 | refractive index [3]: 1.394 ± 0.0005

OC1CCCCC1 [cyclohexanol] + CCC(C)O
excess molar enthalpy ([1]; x1 = 0.0831): 0.0112 ± 0.000335 kcal/mol | excess molar enthalpy ([1]; x1 = 0.0874): 0.0117 ± 0.000335 kcal/mol | excess molar enthalpy ([1]; x1 = 0.1613): 0.019 ± 0.000478 kcal/mol | excess molar enthalpy ([1]; x1 = 0.1704): 0.0201 ± 0.000502 kcal/mol | excess molar enthalpy ([1]; x1 = 0.2787): 0.0284 ± 0.000669 kcal/mol | excess molar enthalpy ([1]; x1 = 0.3304): 0.0304 ± 0.000717 kcal/mol | excess molar enthalpy ([1]; x1 = 0.4131): 0.0334 ± 0.000789 kcal/mol | excess molar enthalpy ([1]; x1 = 0.5657): 0.0359 ± 0.000837 kcal/mol | excess molar enthalpy ([1]; x1 = 0.6512): 0.0363 ± 0.000837 kcal/mol | excess molar enthalpy ([1]; x1 = 0.7441): 0.0325 ± 0.000765 kcal/mol | excess molar enthalpy ([1]; x1 = 0.7557): 0.0319 ± 0.000741 kcal/mol | excess molar enthalpy ([1]; x1 = 0.8271): 0.0247 ± 0.000598 kcal/mol | excess molar enthalpy ([1]; x1 = 0.8352): 0.0238 ± 0.000574 kcal/mol | excess molar enthalpy ([1]; x1 = 0.9129): 0.0128 ± 0.000359 kcal/mol | excess molar enthalpy ([1]; x1 = 0.9201): 0.0127 ± 0.000359 kcal/mol

OC1CCCCC1 [cyclohexanol] + CC(C)O
excess molar enthalpy ([1]; x1 = 0.0817): 0.0162 ± 0.00043 kcal/mol | excess molar enthalpy ([1]; x1 = 0.1653): 0.0276 ± 0.000669 kcal/mol | excess molar enthalpy ([1]; x1 = 0.2454): 0.0356 ± 0.000837 kcal/mol | excess molar enthalpy ([1]; x1 = 0.3436): 0.0429 ± 0.00098 kcal/mol | excess molar enthalpy ([1]; x1 = 0.5462): 0.0466 ± 0.00105 kcal/mol | excess molar enthalpy ([1]; x1 = 0.6326): 0.0451 ± 0.00103 kcal/mol | excess molar enthalpy ([1]; x1 = 0.7173): 0.0405 ± 0.000932 kcal/mol | excess molar enthalpy ([1]; x1 = 0.8036): 0.0298 ± 0.000717 kcal/mol | excess molar enthalpy ([1]; x1 = 0.9097): 0.0172 ± 0.000454 kcal/mol

OC1CCCCC1 [cyclohexanol]
mass density [2]: 941.36 ± 0.23 kg/m3 | refractive index [3]: 1.4632 ± 0.0005
